Measured values as given in ChEMBL document CHEMBL5661943, “ASAP - In vitro antiviral effect” (2024).
Where “and” joins values, the source holds several entries; their conditions need not be identical. Equal values may be shown once.

Experiments:
dengue virus type 2 [1] = assay: Functional assay to measure dose dependent changes in antiviral-drug inhibitory efficacy against Dengue virus type 2 New Guinea C in Vero E6 miRFP670 cells (cotreated with P-gp inhibitor, CP100356). Cells are treated with antiviral candidates that are serially diluted, following infection, cells are fixed. EC50 is reported via analysis of fluorescence intensity using high-content imager. The …; assay type: organism-based, Chlorocebus sabaeus, Vero C1008; conditions: Dengue virus; for EC90: P-gp concentration 500 nM, P-gp inhibitor CP100356
Zika virus = assay: EC50 is reported via analysis of immunofluorescence staining. The assay has been performed by Icahn School of Medicine at Mount Sinai.; assay type: functional, organism-based, Chlorocebus sabaeus, VeroE6/TMPRSS2
dengue virus type 2 [2] = assay: Functional immunofluorescence assay to measure dose dependent changes in antiviral-drug inhibitory efficacy against Dengue virus type 2 Thailand/16681/84 in Vero E6/TMPRSS2 cells (cotreated with P-gp inhibitor, Elacridar). Cells are treated with antiviral candidates that are serially diluted, following infection, cells are fixed. EC50 is reported via analysis of immunofluorescence staining. The assay has been performed by Icahn School of Medicine at Mount Sinai.; assay type: organism-based, Chlorocebus sabaeus, VeroE6/TMPRSS2; conditions: for EC90: P-gp concentration 2 uM, P-gp inhibitor Elacidar

## NCCCCc1ccc(NC(=O)c2cc(Cl)cc(NC(=O)OCc3ccccc3)c2)cc1
Dengue virus type 2 [1]; Vero C1008
  EC50: 4.18 µM
Dengue virus type 2 [1]; Vero C1008, Baseline response 0 %, EC90 CI (lower) 1.854 uM, EC90 CI (upper) 4.634 uM, Hill slope -6.186, Maximum measured 92.478 %, Maximum response 100 %, Minimum measured 7.244 %, R squared 0.772
  EC90: 5.96 µM
Zika virus; Zika virus, VeroE6/TMPRSS2
  EC50: > 5.56 µM
Zika virus; Zika virus, VeroE6/TMPRSS2, Maximum measured 140.797 %, Minimum measured 81.401 %, P-gp concentration 2 uM, P-gp inhibitor Elacidar
  EC90: > 5.56 µM
Dengue virus type 2 [2]; Dengue virus, VeroE6/TMPRSS2
  EC50: > 5.56 µM
Dengue virus type 2 [2]; Dengue virus, VeroE6/TMPRSS2, Maximum measured 145.088 %, Minimum measured 103.355 %
  EC90: > 5.56 µM

## CC(C)OC(=O)Nc1cc(Cl)cc(C(=O)Nc2cccc(CN)c2)c1
Dengue virus type 2 [1]; Vero C1008
  EC50: > 6.25 µM
Dengue virus type 2 [1]; Vero C1008, Maximum measured 143.842 %, Minimum measured 98.266 %
  EC90: > 6.25 µM
Zika virus; Zika virus, VeroE6/TMPRSS2
  EC50: > 16.7 µM
Zika virus; Zika virus, VeroE6/TMPRSS2, Maximum measured 132.205 %, Minimum measured 71.008 %, P-gp concentration 2 uM, P-gp inhibitor Elacidar
  EC90: > 16.7 µM
Dengue virus type 2 [2]; Dengue virus, VeroE6/TMPRSS2
  EC50: > 16.7 µM
Dengue virus type 2 [2]; Dengue virus, VeroE6/TMPRSS2, Baseline response 0 %, Hill slope -10.347, Maximum measured 131.012 %, Maximum response 100 %, Minimum measured 66.05 %, R squared 0.241
  EC90: > 16.7 µM

## NCCCc1ccnc(NC(=O)c2cc(Cl)cc(NC(=O)OCc3ccccc3)c2)c1
Zika virus; Zika virus, VeroE6/TMPRSS2
  EC50: 0.532 µM
  EC90: 3.24 µM
Dengue virus type 2 [2]; Dengue virus, VeroE6/TMPRSS2
  EC50: > 5.56 µM
Dengue virus type 2 [2]; Dengue virus, VeroE6/TMPRSS2, Baseline response 0 %, Hill slope -1.225, Maximum measured 82.874 %, Maximum response 60 %, Minimum measured 33.609 %, R squared 0.331
  EC90: > 5.56 µM

## O=S(=O)(Nc1cccc(-c2nnn[nH]2)c1)c1cc(Cl)cc(-c2ccccc2)c1
Zika virus; Zika virus, VeroE6/TMPRSS2
  EC50: > 50 µM
Zika virus; Zika virus, VeroE6/TMPRSS2, Maximum measured 155.311 %, Minimum measured 93.761 %, P-gp concentration 2 uM, P-gp inhibitor Elacidar
  EC90: > 50 µM
Dengue virus type 2 [2]; Dengue virus, VeroE6/TMPRSS2
  EC50: 0.611 µM
Dengue virus type 2 [2]; Dengue virus, VeroE6/TMPRSS2, Baseline response 0 %, Hill slope -0.304, Maximum measured 103.918 %, Maximum response 100 %, Minimum measured 7.141 %, R squared 0.457
  EC90: > 50 µM

## O=C(Nc1cc(Cl)cc(C(=O)Nc2cc(-c3nnn[nH]3)ccc2F)c1)OCc1ccccc1
Zika virus; Zika virus, VeroE6/TMPRSS2
  EC50: > 16.7 µM
Zika virus; Zika virus, VeroE6/TMPRSS2, Maximum measured 136.099 %, Minimum measured 71.047 %, P-gp concentration 2 uM, P-gp inhibitor Elacidar
  EC90: > 16.7 µM
Dengue virus type 2 [2]; Dengue virus, VeroE6/TMPRSS2
  EC50: > 50 µM
Dengue virus type 2 [2]; Dengue virus, VeroE6/TMPRSS2, Baseline response 0 %, Hill slope -0.699, Maximum measured 181.18 %, Maximum response 100 %, Minimum measured 75.606 %, R squared 0.051
  EC90: > 50 µM

## NCc1cccc(NC(=O)[C@@H](NC(=O)OCc2ccccc2)c2ccc(Br)c(Cl)c2)c1
Zika virus; Zika virus, VeroE6/TMPRSS2
  EC50: 0.557 µM
Zika virus; Zika virus, VeroE6/TMPRSS2, Baseline response 0 %, Hill slope -0.711, Maximum measured 91.358 %, Maximum response 100 %, Minimum measured 2.864 %, P-gp concentration 2 uM, R squared 0.54, P-gp inhibitor Elacidar
  EC90: > 5.56 µM
Dengue virus type 2 [2]; Dengue virus, VeroE6/TMPRSS2
  EC50: > 5.56 µM
Dengue virus type 2 [2]; Dengue virus, VeroE6/TMPRSS2, Maximum measured 72.758 %, Minimum measured 24.513 %
  EC90: > 5.56 µM

## CC[C@H](Cc1nnn[nH]1)c1ccc(NC(=O)c2cc(Cl)cc(C3CC3)c2)cc1
Zika virus; Zika virus, VeroE6/TMPRSS2
  EC50: > 50 µM
Zika virus; Zika virus, VeroE6/TMPRSS2, Maximum measured 167.989 %, Minimum measured 95.132 %, P-gp concentration 2 uM, P-gp inhibitor Elacidar
  EC90: > 50 µM
Dengue virus type 2 [2]; Dengue virus, VeroE6/TMPRSS2
  EC50: > 16.7 µM
Dengue virus type 2 [2]; Dengue virus, VeroE6/TMPRSS2, Maximum measured 194.23 %, Minimum measured 94.649 %
  EC90: > 16.7 µM

## NCc1cccc(NC(=O)c2cc(Cl)cc(NC(=O)OCc3ccccc3)c2)c1
Zika virus; Baseline response 0 %, Hill slope -0.215, Maximum measured 128.419 %, Maximum response 100 %, Minimum measured 50.213 %, P-gp concentration 2 uM, R squared 0.105, P-gp inhibitor Elacidar
  EC90: > 3.33 µM
Zika virus; Baseline response 0 %, Hill slope -0.764, Maximum measured 71.895 %, Maximum response 50 %, Minimum measured 1.714 %, P-gp concentration 2 uM, R squared 0.465, P-gp inhibitor Elacidar
  EC90: > 16.7 µM
Zika virus; Baseline response 0 %, Hill slope -1.05, Maximum measured 125.373 %, Maximum response 100 %, Minimum measured 37.992 %, P-gp concentration 2 uM, R squared 0.488, P-gp inhibitor Elacidar
  EC90: > 5.56 µM
Zika virus; veroe6/tmprss2
  EC50: > 3.33 µM and 2.02 µM and 1.2 µM
Dengue virus type 2 [2]; Baseline response 0 %, Hill slope 0.299, Maximum measured 124.416 %, Maximum response 100 %, Minimum measured 54.583 %, R squared 0.188
  EC90: > 10 µM
Dengue virus type 2 [2]; Baseline response 0 %, Hill slope -0.071, Maximum measured 76.87 %, Maximum response 100 %, Minimum measured 49.245 %, R squared 0.036
  EC90: > 1.85 µM
Dengue virus type 2 [2]; Baseline response 0 %, Hill slope -0.258, Maximum measured 121.337 %, Maximum response 100 %, Minimum measured 68.392 %, R squared 0.156
  EC90: > 5.56 µM
Dengue virus type 2 [2]; veroe6/tmprss2
  EC50: > 10 µM

## CNC(=O)[C@H](Nc1cc(Cl)cc(NC(=O)OCc2ccccc2)c1)c1cccc(-c2nn[nH]n2)c1
Zika virus; Zika virus, VeroE6/TMPRSS2
  EC50: > 50 µM
Zika virus; Zika virus, VeroE6/TMPRSS2, Maximum measured 214.272 %, Minimum measured 122.906 %, P-gp concentration 2 uM, P-gp inhibitor Elacidar
  EC90: > 50 µM
Dengue virus type 2 [2]; Dengue virus, VeroE6/TMPRSS2
  EC50: > 50 µM
Dengue virus type 2 [2]; Dengue virus, VeroE6/TMPRSS2, Baseline response 0 %, Hill slope -0.094, Maximum measured 132.889 %, Maximum response 100 %, Minimum measured 51.11 %, R squared 0.041
  EC90: > 50 µM
